≈ marks a conversion by molar mass, not a printed value.
Tests used:
C. glabrata Y110 [1] = assay: MIC of antifungal agents (96-well turbidity assay, 24 hours); format: cell-based; conditions: for MIC: Nakaseomyces glabratus, Y110, 24 h, read-out: minimum inhibitory concentrations (MIC)
C. tropicana Y140 = assay: as above; format: cell-based; conditions: isolate Y140 (RPMI), RPMI-medium instead of SLM, read-out: minimum inhibitory concentrations (MIC)
C. albicans Y098 = assay: as above; format: cell-based; conditions: Candida albicans, isolate Y098, SLM, read-out: minimum inhibitory concentrations (MIC)
C. glabrata Y112 = assay: as above; format: cell-based; conditions: Nakaseomyces glabratus, isolate Y112, SLM, read-out: minimum inhibitory concentrations (MIC)
C. albicans Y106 = assay: as above; format: cell-based; conditions: Candida albicans, isolate Y106, SLM, read-out: minimum inhibitory concentrations (MIC)
C. albicans Y127 = assay: as above; format: cell-based; conditions: isolate Y127, SLM; for MIC: Candida albicans, read-out: minimum inhibitory concentrations (MIC)
C. glabrata Y111 = assay: as above; format: cell-based; conditions: Nakaseomyces glabratus, isolate Y111, SLM, read-out: minimum inhibitory concentrations (MIC)
C. albicans ATCC 10231 = assay: as above; format: cell-based; conditions: Candida albicans, isolate 10231 (ATCC strain), SLM, read-out: minimum inhibitory concentrations (MIC)
Candida glabrata Y110 = assay: MIC in the presence of saliva (SLM or SLM/Saliva, pH 7.5); format: cell-based; conditions: Nakaseomyces glabratus
C. glabrata Y110 [2] = assay: Candida growth inhibition and MIC at several pH's in SLM or RPMI (96-well turbidity assay); format: cell-based, Candida glabrata; conditions: for MIC: Nakaseomyces glabratus, read-out: minimal inhibitory concentrations (MIC)
C. glabrata Y110 [3] = assay: Synergy experiments (8 by 8 dilution matrix, Prichard and Shipman method); format: cell-based, Candida glabrata

Nc1nc(=O)[nH]cc1F [5-Fluorocytosine, 5-fluorocytosine]
MIC (C. glabrata Y110 [1]; isolate Y110 (RPMI), RPMI-medium instead of SLM): 0.029 ± 0.005 µg/mL | MIC (C. tropicana Y140): 35 ± 7.07 µg/mL

C[C@@H]1[C@H](O)[C@@H](C)/C=C/C=C/C=C/C=C/C=C/C=C/C=C/[C@H](O[C@@H]2O[C@H](C)[C@@H](O)[C@H](N)[C@@H]2O)C[C@@H]2O[C@](O)(C[C@@H](O)C[C@@H](O)[C@H](O)CC[C@@H](O)C[C@@H](O)CC(=O)O[C@H]1C)C[C@H](O)[C@H]2C(=O)O [Amphoterricin B, Amphotericin B]
MIC (C. albicans Y098): 0.08 ± 0.03 µg/mL | MIC (C. glabrata Y110 [1]; isolate Y110, SLM): 0.173 ± 0.06 µg/mL | MIC (C. glabrata Y112): 0.4 ± 0.05 µg/mL | MIC (C. albicans Y106): 0.082 ± 0.03 µg/mL | MIC (C. albicans Y127): 0.15 µg/mL | minimum inhibitory concentrations (MIC) (C. albicans Y127): 0.15 ± 0.07 µg/mL | MIC (C. glabrata Y111): 0.14 ± 0.07 µg/mL | MIC (C. albicans ATCC 10231): 0.06 ± 0.05 µg/mL

OC(Cn1cncn1)(Cn1cncn1)c1ccc(F)cc1F [Fluconazole, fluconazole]
MIC (C. glabrata Y110 [1]; isolate Y110, SLM): 159 µg/mL | minimum inhibitory concentrations (MIC) (C. glabrata Y110 [1]; isolate Y110, SLM): 156 ± 50 µg/mL | MIC (C. albicans Y106): 10 µg/mL | MIC (Candida glabrata Y110; Y110, SLM, pH 7.5): 100 µg/mL | MIC (Candida glabrata Y110; Y110, SLM/Saliva (50%/50%), 24 hours): 40 µg/mL | MIC (Candida glabrata Y110; Y110, SLM, pH 7.5, 24 hours): 100 µg/mL | MIC (C. glabrata Y110 [2]; Y110, RPMI, pH 5.0, 24 hours): 250 µg/mL (≈ 816 µM) | MIC (C. glabrata Y110 [2]; Y110, RPMI, pH 6.0, 24 hours): 110 µg/mL (≈ 359 µM) | MIC (C. glabrata Y110 [2]; Y110, RPMI, pH 7.0, 24 hours): 60 µg/mL (≈ 196 µM) | MIC (C. glabrata Y110 [2]; Y110, SLM, pH 5.6, 24 hours): 200 µg/mL (≈ 653 µM) | MIC (C. glabrata Y110 [2]; Y110, SLM, pH 6.5, 24 hours): 100 µg/mL (≈ 327 µM) | MIC (C. glabrata Y110 [2]; Y110, SLM, pH 7.5, 24 hours): 100 µg/mL (≈ 327 µM) | effect of an increase in pH of the medium on inhibition (C. glabrata Y110 [2]; SLM and RPMI): more efficient inhibition | MIC (C. albicans Y127): 10 µg/mL | UV (C. glabrata Y110 [3]; Fluconazole 0.0033 mg/ml alone): 1.150 | UV (C. glabrata Y110 [3]; Fluconazole 0.0066 mg/ml alone): 1.167 | UV (C. glabrata Y110 [3]; Fluconazole 0.01 mg/ml alone): 1.154 | UV (C. glabrata Y110 [3]; Fluconazole 0.033 mg/ml alone): 1.127 | UV (C. glabrata Y110 [3]; Fluconazole 0.1 mg/ml alone): 0.618 | UV (C. glabrata Y110 [3]; Fluconazole 0.2 mg/ml alone): 0.003 | UV (C. glabrata Y110 [3]; Fluconazole 0.33 mg/ml alone): 0.003 | UV (C. glabrata Y110 [3]; Fluconazole 0.5 mg/ml alone): 0.004 | inhibition at 3.3 µg/mL (C. glabrata Y110 [3]; Nakaseomyces glabratus, Y110, Fluconazole 0.0033 mg/ml alone): 0% | inhibition at 6.6 µg/mL (C. glabrata Y110 [3]; Nakaseomyces glabratus, Y110, Fluconazole 0.0066 mg/ml alone): 0% | inhibition at 10 µg/mL (C. glabrata Y110 [3]; Nakaseomyces glabratus, Y110, Fluconazole 0.01 mg/ml alone): 0% | inhibition at 33 µg/mL (C. glabrata Y110 [3]; Nakaseomyces glabratus, Y110, Fluconazole 0.033 mg/ml alone): 0% | inhibition at 100 µg/mL (C. glabrata Y110 [3]; Nakaseomyces glabratus, Y110, Fluconazole 0.1 mg/ml alone): 39.5% | inhibition at 200 µg/mL (C. glabrata Y110 [3]; Nakaseomyces glabratus, Y110, Fluconazole 0.2 mg/ml alone): 99.8% | inhibition at 330 µg/mL (C. glabrata Y110 [3]; Nakaseomyces glabratus, Y110, Fluconazole 0.33 mg/ml alone): 99.8% | inhibition at 500 µg/mL (C. glabrata Y110 [3]; Nakaseomyces glabratus, Y110, Fluconazole 0.5 mg/ml alone): 99.6% | MIC (C. glabrata Y111): 24 ± 7 µg/mL

Source: patent publication EP1089755B1, “PHARMACEUTICAL PREPARATIONS FOR USE IN COMBATTING OR PREVENTING SURFACE INFECTIONS CAUSED BY MICROORGANISMS” (priority 1998, dated 2000)
